The record followed here is patent publication US10364256B2 (GlaxoSmithKline Intellectual Property Development Limited, priority 2015, dated 2019).

In general, EC50 refers to the concentration that produces a half-maximal response. For orientation: IC50 means the midpoint of a concentration-inhibition curve.

For experiment [1], the system named is NQO1 specific enzyme activity in BEAS-2B cells (marker for NRF2 activation). The experiment in a line: BEAS-2B NQO1 MTT Assay. The note with it: Homo sapiens. The class given is cell-based. A digest of the protocol: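 BEAS-2B cells treated with compound for 48 h at 37 °C, then lysed; NQO1 activity in lysates measured kinetically by MTT reduction at A570 over 30 min. pEC50 from 3-parameter fit of ΔOD/min versus log concentration; lysate also taken for Cell Titer Glo.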

For experiment [2], the target named is T1, Keap1 Kelch domain (321-609) / TAMRA-labeled 16mer NRF2 peptide (ETGE motif) (Homo sapiens, UniProt Q14145).
T1 construct: the Kelch domain (321-609) of Keap1 is used
Description: NRF2-Keap1 FP Assay (Keap1 Kelch fluorescence polarization). Type of experiment: binding. Particulars: 20 nM Keap1 (321-609), 8 nM Tamra labeled peptide. Summed up: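 Compound dilutions (3-fold) were incubated 1 hr at room temperature with 20 nM Keap1 Kelch (321-609) and 8 nM TAMRA-labeled ETGE 16mer peptide. Buffer was 50 mM Tris pH 8.0, 100 mM NaCl, 5 mM MgCl2, 1 mM DTT, 2 mM CHAPS, 0.005% BSA. Fluorescence polarization (mP) was normalized to controls and fitted with a four-parameter equation to give pIC50.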
In general terms: Fluorescence polarisation rises when a labelled molecule tumbles more slowly, as on binding a larger partner.

Experiment [3] concerns the target T2, full length Keap1 protein / full length NRF2 protein (Homo sapiens, UniProt Q14145).
T2 construct: full length NRF2 protein and full length Keap1 protein (Keap1 exists a dimer) are used; His
Description: NRF2-Keap1 TR-FRET Low Protein Assay. Type of experiment: binding. Particulars: 1.25 nM Keap1 FlagHis and 2.5 nM biotin-NRF2 added. A digest of the protocol:
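Flag-tagged full-length Keap1 was preincubated with compound (3-fold series) for 2.25 h at 37 °C in Tris pH 8.0/MgCl2/NaCl/BSA/DTT/CHAPS. Biotin-Avi-NRF2 (added at 2.5 nM) was then bound for 1.25 h at 4 °C. Eu-streptavidin/anti-Flag-APC TR-FRET (665/615 nm) was read after 1 h at RT, and pIC50 came from a four-parameter fit.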
(TR-FRET usually uses a lanthanide donor and a delayed reading to cut background.)

Setting [4] is: compound incubated 48 hours, read-out: EC50 (NQO1 specific enzyme activity induction).

Read-outs that look alike come from different tables or passages of the source.

T1 sequence (Q14145 321-609): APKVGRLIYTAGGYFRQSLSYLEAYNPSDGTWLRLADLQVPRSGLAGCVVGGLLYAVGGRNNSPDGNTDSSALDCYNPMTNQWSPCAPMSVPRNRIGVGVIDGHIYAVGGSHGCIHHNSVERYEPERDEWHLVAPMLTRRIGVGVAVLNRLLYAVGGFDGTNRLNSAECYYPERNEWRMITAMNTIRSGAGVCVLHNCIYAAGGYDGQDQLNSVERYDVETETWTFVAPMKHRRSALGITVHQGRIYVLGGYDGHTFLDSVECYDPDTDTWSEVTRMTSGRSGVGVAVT
T2 sequence (Q14145 whole entry): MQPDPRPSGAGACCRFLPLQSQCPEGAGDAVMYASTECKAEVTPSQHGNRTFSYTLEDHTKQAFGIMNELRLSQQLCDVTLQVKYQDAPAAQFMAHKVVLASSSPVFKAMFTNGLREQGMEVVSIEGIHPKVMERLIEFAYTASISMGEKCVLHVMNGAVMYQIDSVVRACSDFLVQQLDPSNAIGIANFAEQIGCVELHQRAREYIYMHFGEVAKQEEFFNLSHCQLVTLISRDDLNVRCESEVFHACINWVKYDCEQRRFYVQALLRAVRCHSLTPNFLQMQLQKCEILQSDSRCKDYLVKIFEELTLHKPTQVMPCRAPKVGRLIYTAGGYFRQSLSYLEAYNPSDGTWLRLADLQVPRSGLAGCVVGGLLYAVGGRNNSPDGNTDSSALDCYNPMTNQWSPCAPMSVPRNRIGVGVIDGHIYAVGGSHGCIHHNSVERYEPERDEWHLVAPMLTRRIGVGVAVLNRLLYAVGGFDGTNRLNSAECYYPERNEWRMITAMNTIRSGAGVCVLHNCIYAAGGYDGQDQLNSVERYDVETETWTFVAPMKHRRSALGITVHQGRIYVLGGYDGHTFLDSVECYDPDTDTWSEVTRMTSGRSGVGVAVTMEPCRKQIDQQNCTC

Take `C[C@@H]1Cc2ccccc2S(=O)(=O)N(Cc2cccc(-c3cccc(-n4ncc(C(=O)O)c4[C@@H]4C[C@H]4c4cn(C)nn4)c3)c2)C1` [Example 130, 1-(3′-(((R)-4-Methyl-1,1-dioxido-4,5-dihydrobenzo[f][1,2]thiazepin-2(3H)-yl)methyl)-[1,1′-biphenyl]-3-yl)-5-((1R,2R)-2-(1-methyl-1H-1,2,3-triazol-4-yl)cyclopropyl)-1H-pyrazole-4-carboxylic Acid]: the EC50 in experiment [1] (setting [4]) lay within 0.1 to 1 µM. Moreover, the IC50 in experiment [2] and in experiment [3] was 0.01 to 0.1 µM each time.

For the compound `C[C@H]1Cc2ccc(Br)cc2S(=O)(=O)N(Cc2cccc(-c3cccc(-n4ncc(C(=O)O)c4[C@@H]4C[C@H]4c4cn(C)nn4)c3)c2F)C1` [Example 131, 1-(3′-(((S)-8-Bromo-4-methyl-1,1-dioxido-4,5-dihydrobenzo[f][1,2]thiazepin-2(3H)-yl)methyl)-2′-fluoro-[1,1′-biphenyl]-3-yl)-5-((1R,2R)-2-(1-methyl-1H-1,2,3-triazol-4-yl)cyclopropyl)-1H-pyrazole-4-carboxylic acid], the EC50 in experiment [1] (setting [4]) was 0.1 to 1 µM. For the same compound, the values for the IC50 in experiment [2] and in experiment [3] were 0.01 to 0.1 µM and less than 0.01 µM, respectively.

Regarding `C[C@H]1Cc2ccccc2S(=O)(=O)N(Cc2cccc(-c3cccc(-n4ncc(C(=O)O)c4[C@@H]4C[C@H]4c4cn(C)nn4)c3)c2)C1` [Example 132, 1-(3′-(((S)-4-methyl-1,1-dioxido-4,5-dihydrobenzo[f][1,2]thiazepin-2(3H)-yl)methyl)-[1,1′-biphenyl]-3-yl)-5-((1R,2R)-2-(1-methyl-1H-1,2,3-triazol-4-yl)cyclopropyl)-1H-pyrazole-4-carboxylic acid], in experiment [1] (setting [4]), the EC50 was 0.1 to 1 µM. Also, the IC50 was 0.01 to 0.1 µM in experiment [2] and less than 0.01 µM in experiment [3].

For `C[C@H]1Cc2ccccc2S(=O)(=O)N(Cc2cccc(-c3cccc(-n4ncc(C(=O)O)c4[C@H]4C[C@@H]4c4cn(C)nn4)c3)c2)C1` [Example 133, 1-(3′-(((S)-4-methyl-1,1-dioxido-4,5-dihydrobenzo[f][1,2]thiazepin-2(3H)-yl)methyl)-[1,1′ biphenyl]-3-yl)-5-((1S,2S)-2-(1-methyl-1H-1,2,3-triazol-4-yl)cyclopropyl)-1H-pyrazole-4-carboxylic acid], the EC50 in experiment [1] (setting [4]) lay within 1 to 10 µM. Further, the values for the IC50 in experiment [2] and in experiment [3] were 0.1 to 1 µM and 0.01 to 0.1 µM, respectively.

In the case of `CCN1CCN(Cc2cccc(-c3cccc(-n4ncc(C(=O)O)c4[C@@H]4C[C@H]4c4cn(C)nn4)c3)c2)S(=O)(=O)c2ccccc21` [Example 139, 1-(3′-((5-Ethyl-1,1-dioxido-4,5-dihydrobenzo[f][1,2,5]thiadiazepin-2(3H)-yl)methyl)-[1,1′-biphenyl]-3-yl)-5-((1R, 2R)-2-(1-methyl-1H-1,2,3-triazol-4-yl)cyclopropyl)-1H-pyrazole-4-carboxylic acid], the EC50 in experiment [1] (setting [4]) was 1 to 10 µM. Further, the IC50 in experiment [2] is 0.01 to 0.1 µM; in experiment [3], less than 0.01 µM.

For `C[C@@H](Oc1cccc(-c2cccc(-n3ncc(C(=O)O)c3[C@@H]3C[C@H]3c3cn(C)nn3)c2)c1)C1CCCCC1` [Example 162, 1-(3′-((R)-1-Cyclohexylethoxy)-[1,1′-biphenyl]-3-yl)-5-((1R,2R)-2-(1-methyl-1H-1,2,3-triazol-4-yl)cyclopropyl)-1H-pyrazole-4-carboxylic Acid], the EC50 in experiment [1] (BEAS-2B, 48 h, compound incubated 48 hours, read-out: EC50 (NQO1 specific enzyme activity induction)) is 0.01 to 0.1 µM. Also, the IC50 in experiment [2] fell in the range of 0.1 to 1 µM; in experiment [3], 0.01 to 0.1 µM.

Take `Cn1cc(C2CC2c2c(C(=O)O)cnn2-c2cccc(-c3cccc(OCCC4CCCCC4)c3)c2)nn1` (stereo not shown) [Example 170, 1-(3′-(2-Cyclohexylethoxy)-[1,1′-biphenyl]-3-yl)-5-(2-(1-methyl-1H-1,2,3-triazol-4-yl)cyclopropyl)-1H-pyrazole-4-carboxylic acid]: the EC50 in experiment [1] (setting [4]) was 0.1 to 1 µM. Moreover, the 50% inhibitory concentration (IC50) in experiment [2] and in experiment [3] was 0.01 to 0.1 µM in each case.

`CCn1cc([C@H]2C[C@@H]2c2c(C(=O)O)cnn2-c2cc(OC)cc(-c3cccc(OC(C)C4CCCCC4)c3)c2)nn1` (stereo partly drawn) [Example 193, 1-(3′-(1-cyclohexylethoxy)-5-methoxy-[1,1′-biphenyl]-3-yl)-5-((1S,2S)-2-(1-ethyl-1H-1,2,3-triazol-4-yl)cyclopropyl)-1H-pyrazole-4-carboxylic acid]: the EC50 in experiment [1] (setting [4]) fell in the range of 0.1 to 1 µM. In addition, the IC50 in experiment [2] and in experiment [3] was 0.1 to 1 µM in each case.

As to `CC[C@@H]1CN(Cc2cccc(-c3cccc(-n4ncc(C(=O)O)c4[C@@H]4C[C@H]4c4cn(C)nn4)c3)c2)S(=O)(=O)c2ccccc2O1` [Example 255, 1-(3′-(((R)-4-Ethyl-1,1-dioxido-3,4-dihydro-2H-benzo[b][1,4,5]oxathiazepin-2-yl)methyl)-[1,1′-biphenyl]-3-yl)-5-(trans-2-(1-methyl-1H-1,2,3-triazol-4-yl)cyclopropyl)-1H-pyrazole-4-carboxylic Acid], the EC50 was 0.1 to 1 µM in experiment [1] (setting [4]) and greater than 1 µM in experiment [1] (in two determinations (footnote ϕ), read-out: EC50 in two determinations). The figures for the IC50 in experiment [2] and in experiment [3] were 0.01 to 0.1 µM and less than 0.01 µM, respectively.

With `CC[C@@H]1CN(C(=O)c2cccc(-c3cccc(-n4ncc(C(=O)O)c4[C@@H]4C[C@H]4c4cn(C)nn4)c3)c2)Cc2ccccc2O1` [Example 257], the EC50 in experiment [1] (setting [4]) was 1 to 10 µM. Moreover, the results for the IC50 in experiment [2] and in experiment [3] were 0.01 to 0.1 µM and less than 0.01 µM, respectively.
